Reference: patent publication US20260157984A1, “CERAMIDE COMPOSITION” (GENUINE R&D CO., LTD., priority 2021, published 2026)

Tested on: HaCaT cells
Assay: Measurement of mitochondrial activity by IN Cell Analyzer 2200 in HaCaT cells
Type: cell-based, human
Settings: HaCaT cells treated with ceramides 48 hours, 5 μM, FIG. 1
Description: A human epidermal keratinocyte cell line, i.e., HaCaT cells, was used as a human skin cell model. The cells were subcultured in a cell culture dish (Greiner Bio-One Co., Ltd., Tokyo, Japan) at 37° C. in the presence of 5% CO2 by using DMEM medium (Dulbecco's Modified Eagle Medium, Nissui, Tokyo, Japan) containing 10% inactivated fetal bovine serum (FBS, Life Technologies Corporation, CA, USA). […]
HaCaT cells were seeded in a 96-well plate at a density of 6.0×10^4 cells/mL and precultured for 24 hours. […] Thereafter, the diluted Hoechst […] solution was removed from the 96-well plate, […] of PBS was added, and the fluorescence was detected using an IN Cell Analyzer 2200 (GE Healthcare). By measuring the amounts of fluorescence of MitoTracker Red, MitoTracker Green, and Hoechst 33342, the mitochondrial activity, number, and area in the cells were examined. The images were analyzed using IN Cell Investigator High-content image analysis software (GE Healthcare).
The mitochondrial number and area (MitoTracker Green), as well as the mitochondrial membrane potential activity (MitoTracker Red), per cell were measured using an IN Cell Analyzer 2200 in HaCaT cells treated with ceramides for 48 hours.

CCCCCCCCCCCCCCCCCC(=O)N[C@@H](CO)[C@H](O)CCCCCCCCCCCCCCC [synthetic ceramide, ceramide NG]
mitochondrial number per cell (MitoTracker Green): significantly increased
